In ChEMBL document CHEMBL5154761, “Design, synthesis, and evaluation of 9-(pyrimidin-2-yl)-9H-carbazole derivatives disrupting mitochondrial homeostasis in human lung adenocarcinoma” (Eur J Med Chem, 2022):
The source made the active and inactive calls. No cut-off for these calls is given here.

Columns and labels:
A549 [1] = assay: Inhibition of mitochondrial membrane potential in human A549 cells by JC-1 staining based high-content screening method; format: functional, cell-based; conditions: dose 0.5-2 µM, DDE = dose-dependent effect
A549 [2] = assay: Induction of cell cycle arrest in human A549 cells assessed as accumulation at S phase at 0.5 uM incubated for 48 hrs by PI staining based flow cytometry analysis (reference value: 12.85%); format: functional
A549 [3] = assay: Induction of cell cycle arrest in human A549 cells assessed as accumulation at G2/M phase at 0.5 uM incubated for 48 hrs by PI staining based flow cytometry analysis (reference value: 18.14); format: functional
A549 [4] = assay: Induction of apoptosis in human A549 cells assessed as early apoptotic cells at 0.5 uM incubated for 48 hrs by Annexin V-FITC/propidium iodide staining based flow cytometry analysis (reference value: 1.46%); format: functional
A549 [5] = assay: Induction of cell cycle arrest in human A549 cells assessed as decrease in cyclin D1 expression upto 1 uM incubated for 48 hrs by Western blot analysis; format: functional, cell-based
A549 [6] = assay: Inhibition of colony formation in human A549 cells incubated for 48 hrs followed by culture medium replacement for every 72 hrs and measured after 7 days by crystal violet staining based analysis; format: functional, cell-based; conditions: dose 1-2 µM, time 7.0 day, DDE = dose-dependent effect
[7] = Antiproliferative activity against rat NRK-52E cells assessed as cell growth inhibition incubated for 48 hrs by MTT assay; format: toxicity, cell-based
NRK-52E = assay: Antiproliferative activity against rat NRK-52E cells at upto 10.75 uM incubated for 48 hrs by RTCA analysis; format: toxicity, cell-based
A549 [8] = assay: Inhibition of mitochondrial respiration in human A549 cells assessed as reduction in respiratory control ratio by seahorse XFe24 flux analyzer; format: functional, cell-based; conditions: dose 0.5-2 µM, DDE = dose-dependent effect
A549 [9] = assay: Induction of apoptosis in human A549 cells assessed as late apoptotic cells at 1 uM incubated for 48 hrs by Annexin V-FITC/propidium iodide staining based flow cytometry analysis (reference value: 1.00%); format: functional
A549 [10] = assay: Induction of mitochondrial membrane potential loss in human A549 cells assessed as reduction in ATP levels at 1 to 2 uM incubated for 12 hrs in presence of oligomycin/FCCP/antimycin A /rotenone by seahorse XFe24 flux analyzer; format: functional, cell-based; conditions: dose 1-2 µM
A549 [11] = assay: Induction of morphological changes in human A549 cells assessed as swollen microstructure of mitochondria by transmission electron microscopy; format: functional, cell-based
A549 [12] = assay: Induction of apoptosis in human A549 cells assessed as increase in P53 protein expression at 0.5 to 1 uM measured after 48 hrs by Western blot assay; format: functional, cell-based; conditions: dose 0.5-1 µM
A549 [13] = assay: Induction of apoptosis in human A549 cells assessed as rate of apoptotic cells at 0.5 to 1 uM incubated for 48 hrs by Annexin V-FITC/propidium iodide staining based flow cytometry analysis (reference value: 2.7 %); format: functional; conditions: dose 0.5-1 µM
A549 [14] = assay: Induction of apoptosis in human A549 cells assessed as increase in Bax protein expression at 0.5 to 1 uM measured after 48 hrs by Western blot assay; format: functional, cell-based; conditions: dose 0.5-1 µM
A549 [15] = assay: Induction of apoptosis in human A549 cells assessed as increase in PARP protein expression at 0.5 to 1 uM measured after 48 hrs by Western blot assay; format: functional, cell-based; conditions: dose 0.5-1 µM
A549 [16] = assay: Induction of cell cycle arrest in human A549 cells assessed as accumulation at S phase at 1 uM incubated for 48 hrs by PI staining based flow cytometry analysis (reference value: 12.85%); format: functional
A549 [17] = assay: Induction of cell cycle arrest in human A549 cells assessed as accumulation at Go/G1 phase at 0.5 uM incubated for 48 hrs by PI staining based flow cytometry analysis (reference value: 62.45); format: functional
A549 [18] = assay: Induction of DNA damage in human A549 cells assessed as upregulation of gamma H2AX incubated for 48 hrs by Western blot analysis; format: functional, cell-based; conditions: dose <= 1.0 µM, DDE = dose-dependent effect
A549 [19] = assay: Inhibition of colony formation in human A549 cells at 2 uM incubated for 48 hrs followed by culture medium replacement for every 72 hrs and measured after 14 days by crystal violet staining based analysis relative to control; format: functional; parameters: scale not given: the % may be the effect or the level left; conditions: time 14 day
A549 [20] = assay: Induction of cell cycle arrest in human A549 cells assessed as increase in cyclin B1 expression upto 1 uM incubated for 48 hrs by Western blot analysis; format: functional, cell-based
A549 [21] = assay: Induction of apoptosis in human A549 cells assessed as increase in cleaved caspase 7 protein expression at 0.5 to 1 uM measured after 48 hrs by Western blot assay; format: functional, cell-based; conditions: dose 0.5-1 µM
A549 [22] = assay: Antiproliferative activity against human A549 cells at >1.35 uM incubated for 48 hrs by RTCA analysis; format: functional, cell-based
A549 [23] = assay: Antitumor activity against human A549 cells xenografted in BALB/c nude mouse assessed as reduction in tumor size at 2 mg/kg, ip administered once daily for 14 days and measured every day (reference value: 2100 mm3); format: functional; conditions: time 14 day
A549 [24] = assay: Inhibition of mitochondrial respiration in human A549 cells assessed as decrease in basal respiration at 2 uM in presence of oligomycin/FCCP/antimycin A /rotenone measured upto 75 mins by seahorse XFe24 flux analyzer; format: functional, cell-based
A549 [25] = assay: Induction of apoptosis in human A549 cells assessed as increase in cleaved caspase 3 protein expression at 0.5 to 1 uM measured after 48 hrs by Western blot assay; format: functional, cell-based; conditions: dose 0.5-1 µM
A549 [26] = assay: Induction of apoptosis in human A549 cells assessed as upregulation of caspase 9 protein expression at 0.5 to 1 uM measured after 48 hrs by Western blot assay; format: functional, cell-based; conditions: dose 0.5-1 µM
A549 [27] = assay: Inhibition of mitochondrial respiration in human A549 cells assessed as decrease in maximal respiration at 2 uM in presence of oligomycin/FCCP/antimycin A /rotenone measured upto 75 mins by seahorse XFe24 flux analyzer; format: functional, cell-based
A549 [28] = assay: Induction of cell cycle arrest in human A549 cells assessed as accumulation at G2/M phase at 1 uM incubated for 48 hrs by PI staining based flow cytometry analysis (reference value: 18.14); format: functional
A549 [29] = assay: Induction of apoptosis in human A549 cells assessed as increase in caspase 3 protein expression at 0.5 to 1 uM measured after 48 hrs by Western blot assay; format: functional, cell-based; conditions: dose 0.5-1 µM
A549 [30] = assay: Induction of apoptosis in human A549 cells assessed as viable cells at 1 uM incubated for 48 hrs by Annexin V-FITC/propidium iodide staining based flow cytometry analysis (reference value: 97.3%); format: functional; conditions: read-out: Activity
A549 [31] = assay: Induction of cell cycle arrest in human A549 cells assessed as accumulation at G2/M phase incubated for 48 hrs by PI staining based flow cytometry analysis; format: functional; conditions: dose <= 1.0 µM, DDE = dose-dependent effect
A549 [32] = assay: Induction of apoptosis in human A549 cells assessed as decrease in caspase 7 protein expression at 0.5 to 1 uM measured after 48 hrs by Western blot assay; format: functional, cell-based; conditions: dose 0.5-1 µM
A549 [33] = assay: Inhibition of mitochondrial respiration in human A549 cells assessed as decrease in spare capacity at 2 uM in presence of oligomycin/FCCP/antimycin A /rotenone measured upto 75 mins by seahorse XFe24 flux analyzer; format: functional, cell-based
A549 [34] = assay: Induction of apoptosis in human A549 cells assessed as necrotic cells at 0.5 uM incubated for 48 hrs by Annexin V-FITC/propidium iodide staining based flow cytometry analysis (reference value: 0.30%); format: functional
A549 [35] = assay: Induction of apoptosis in human A549 cells assessed as viable cells at 0.5 uM incubated for 48 hrs by Annexin V-FITC/propidium iodide staining based flow cytometry analysis (reference value: 97.3%); format: functional; conditions: read-out: Activity
A549 [36] = assay: Induction of cell cycle arrest in human A549 cells assessed as accumulation at G2/M phase at 10 uM incubated for 48 hrs by PI staining based flow cytometry analysis; format: functional
A549 [37] = assay: Induction of morphological changes in human A549 cells assessed as vacuolated microstructure of mitochondria by transmission electron microscopy; format: functional, cell-based
A549 [38] = assay: Inhibition of mitochondrial respiration in human A549 cells assessed as decrease in proton leak at 2 uM in presence of oligomycin/FCCP/antimycin A/rotenone measured upto 75 mins by seahorse XFe24 flux analyzer; format: functional, cell-based
A549 [39] = assay: Induction of apoptosis in human A549 cells assessed as increase in cleaved PARP protein expression at 0.5 to 1 uM measured after 48 hrs by Western blot assay; format: functional, cell-based; conditions: dose 0.5-1 µM
A549 [40] = assay: Inhibition of mitochondrial membrane potential in human A549 cells by JC-1 staining based confocal microscopy; format: functional, cell-based; conditions: dose 1.0 µM, DDE = dose-dependent effect
A549 [41] = assay: Cytotoxicity against human A549 cells assessed as cell growth inhibition incubated for 48 hrs by MTT assay; format: functional, cell-based; conditions: A549, 48 h
A549 [42] = assay: Induction of apoptosis in human A549 cells assessed as decrease in Bcl-2 protein expression at 0.5 to 1 uM measured after 48 hrs by Western blot assay; format: functional, cell-based; conditions: dose 0.5-1 µM
A549 [43] = assay: Induction of apoptosis in human A549 cells assessed as late apoptotic cells at 0.5 uM incubated for 48 hrs by Annexin V-FITC/propidium iodide staining based flow cytometry analysis (reference value: 1.00%); format: functional
A549 [44] = assay: Induction of apoptosis in human A549 cells assessed as necrotic cells at 1 uM incubated for 48 hrs by Annexin V-FITC/propidium iodide staining based flow cytometry analysis (reference value: 0.30%); format: functional
A549 [45] = assay: Antitumor activity against human A549 cells xenografted in BALB/c nude mouse assessed as necrotic cells at 2 mg/kg, ip administered once daily for 14 days by H and E staining; format: functional, organism-based; conditions: time 14.0 day
A549 [46] = assay: Induction of cell cycle arrest in human A549 cells assessed as accumulation at Go/G1 phase at 1 uM incubated for 48 hrs by PI staining based flow cytometry analysis (reference value: 62.45); format: functional
A549 [47] = assay: Induction of apoptosis in human A549 cells assessed as early apoptotic cells at 1 uM incubated for 48 hrs by Annexin V-FITC/propidium iodide staining based flow cytometry analysis (reference value: 1.46%); format: functional
A549 [48] = assay: Cytotoxicity against human A549 cells assessed as cell growth inhibition at 10 uM incubated for 48 hrs by MTT assay relative to control; format: functional
[49] = Toxicity in BALB/c mouse xenografted with human A549 cells assessed as effect on body weight at 0.4 to 2 mg/kg, ip administered once daily for 14 days and measured every day; format: organism-based; conditions: in vivo, 336 h, dose 0.4-2 mg/kg, time 14 day

O=C(c1ccc2c(c1)OCO2)c1cccc2c3ccccc3n(-c3ncccn3)c12
inhibition (A549 [1]): Dde | Activity (A549 [2]): 13.84% | Activity (A549 [3]): 23.16% | Activity (A549 [4]): 2.71% | Activity (A549 [5]): Active | inhibition (A549 [6]): Dde | IC50 at 48 h [7]: 1.25 µM | Activity (NRK-52E): Non-Toxic | inhibition (A549 [8]): Dde | Activity (A549 [9]): 6.98% | Activity (A549 [10]): Active | Activity (A549 [11]): Active | Activity (A549 [12]): Active | Activity (A549 [13]): 21.1% | Activity (A549 [14]): Active | Activity (A549 [15]): Active | Activity (A549 [16]): 14.11% | Activity (A549 [17]): 59.84% | Activity (A549 [18]): Dde | Activity (A549 [19]): 69% | Activity (A549 [20]): Active | Activity (A549 [21]): Active | Activity (A549 [22]): Active | Activity (A549 [23]): 1255 mm3 | inhibition (A549 [24]): Active | Activity (A549 [25]): Active | Activity (A549 [26]): Active | inhibition (A549 [27]): Active | Activity (A549 [28]): 65.62% | Activity (A549 [29]): Active | viability at 1 µM (A549 [30]): 78.9% | Activity (A549 [31]): Dde | Activity (A549 [32]): Active | inhibition (A549 [33]): Active | Activity (A549 [34]): 1.74% | viability at 0.5 µM (A549 [35]): 93.4% | Activity (A549 [36]): Active | Activity (A549 [37]): Active | inhibition (A549 [38]): Active | Activity (A549 [39]): Active | inhibition (A549 [40]): Dde | IC50 (A549 [41]): 0.82 µM | Activity (A549 [42]): Active | Activity (A549 [43]): 2.17% | Activity (A549 [44]): 1.8% | Activity (A549 [45]): Active | Activity (A549 [46]): 29.76% | Activity (A549 [47]): 12.3% | inhibition at 10 µM (A549 [48]): 78.6% | Activity [49]: Non-Toxic

N#Cc1cccc(C(=O)c2cccc3c4ccccc4n(-c4ncccn4)c23)c1
IC50 (A549 [41]): 13.7 µM | inhibition at 10 µM (A549 [48]): < 50%

O=C(c1ccc(C(F)(F)F)cc1)c1cccc2c3ccccc3n(-c3ncccn3)c12
Activity (A549 [36]): Active | IC50 (A549 [41]): 15.6 µM | inhibition at 10 µM (A549 [48]): 50%

O=C(O)c1cccc2c3ccccc3n(-c3ncccn3)c12
IC50 (A549 [41]): 15.5 µM

CC(C)(C)OC(=O)c1cccc2c3cc(Cl)ccc3n(-c3ncccn3)c12
Activity (A549 [36]): Active

O=C(c1cccc(Cl)c1)c1cccc2c3ccccc3n(-c3ncccn3)c12
Activity (A549 [36]): Active | IC50 (A549 [41]): 7.19 µM | inhibition at 10 µM (A549 [48]): 50%
